Laboratory results from US20080026996A1, “Selective Vpac2 Receptor Reptide Agonists” (ELI LILLY AND COMPANY, priority 2004, published 2008).
Where no end group is shown, it is not given here. [ ]: non-standard residue; d: D form. The star is where a group is joined. hArg = N=C(N)NCCCC[C@H](N)C(=O)O; Nle = CCCC[C@H](N)C(=O)O; Orn = NCCC[C@H](N)C(=O)O; Hexanoyl = CCCCCC(=O)*; Aib = CC(C)(N)C(=O)O

Tests used:
human PAC1 = biological target: T1, human PAC1 (Homo sapiens, UniProt P41586); assay: Filter binding assay, membranes of cells transiently transfected with human PAC1, 125I-labeled PACAP-27 tracer (Table 2); design: expressed in transfected cells; conditions: read-out: Human PAC1 Receptor Binding
T1 sequence (P41586 21-468): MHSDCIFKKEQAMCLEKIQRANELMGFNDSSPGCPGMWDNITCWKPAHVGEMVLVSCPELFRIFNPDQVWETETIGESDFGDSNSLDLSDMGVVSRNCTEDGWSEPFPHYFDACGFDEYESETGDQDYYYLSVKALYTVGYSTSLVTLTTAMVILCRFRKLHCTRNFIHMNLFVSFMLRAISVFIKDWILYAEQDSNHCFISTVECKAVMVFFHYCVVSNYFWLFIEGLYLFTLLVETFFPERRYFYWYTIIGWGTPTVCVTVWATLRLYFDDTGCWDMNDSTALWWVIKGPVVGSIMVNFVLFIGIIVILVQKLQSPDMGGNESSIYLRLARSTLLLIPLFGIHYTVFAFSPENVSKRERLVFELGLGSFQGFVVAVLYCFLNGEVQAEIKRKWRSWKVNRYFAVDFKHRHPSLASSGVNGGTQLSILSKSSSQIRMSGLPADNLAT
Outline: (§1)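 Membranes 2.5 μg/well; tracer ~40000 cpm; buffer 25 mM HEPES pH 7.4, 0.5% protease-free BSA; 1 h incubation, shaking. Glass-fibre filtration (0.5% polyethyleneamine presoak, 0.2% BSA block), 3× HEPES wash, dry 1 h at 60° C, scintillation count.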

[1] = Rat serum stability studies (remaining active peptide by DiscoveRx cAMP on CHO-VPAC2 cells); format: in vitro ADME
Outline: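 EC50 from a DiscoveRx cAMP read-out on CHO-VPAC2 cells indexes how much peptide stays active after 18 h in rat serum at 37° C without aprotinin, against an aprotinin-protected 4° C aliquot.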

human VPAC1 = biological target: T2, human VPAC1 (Homo sapiens, UniProt P32241); assay: Filter binding assay, membranes of cells transiently transfected with human VPAC1, 125I-labeled VIP tracer (Table 2); design: expressed in transfected cells; conditions: read-out: Human VPAC1 Receptor Binding
T2 sequence (P32241 31-457): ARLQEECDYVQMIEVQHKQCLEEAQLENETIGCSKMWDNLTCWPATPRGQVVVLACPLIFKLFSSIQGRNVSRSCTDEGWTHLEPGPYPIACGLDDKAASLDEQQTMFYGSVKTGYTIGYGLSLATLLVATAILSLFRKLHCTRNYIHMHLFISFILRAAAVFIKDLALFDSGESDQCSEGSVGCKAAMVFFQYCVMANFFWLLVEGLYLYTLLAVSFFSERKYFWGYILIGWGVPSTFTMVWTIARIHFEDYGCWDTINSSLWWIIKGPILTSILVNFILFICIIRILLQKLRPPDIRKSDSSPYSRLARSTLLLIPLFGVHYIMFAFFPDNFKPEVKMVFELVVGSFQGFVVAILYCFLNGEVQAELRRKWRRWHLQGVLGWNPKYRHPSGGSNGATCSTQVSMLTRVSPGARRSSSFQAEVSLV
Outline: as §1

rat VPAC2 receptor = biological target: T3, rat VPAC2 receptor (Rattus norvegicus, UniProt P35000); assay: DiscoveRx in vitro potency, CHO-PO cells transiently transfected with rat VPAC 2 receptor DNA; format: cell-based; design: expressed in transfected cells; host or cells: CHO-PO, transient
T3 sequence (P35000 23-437): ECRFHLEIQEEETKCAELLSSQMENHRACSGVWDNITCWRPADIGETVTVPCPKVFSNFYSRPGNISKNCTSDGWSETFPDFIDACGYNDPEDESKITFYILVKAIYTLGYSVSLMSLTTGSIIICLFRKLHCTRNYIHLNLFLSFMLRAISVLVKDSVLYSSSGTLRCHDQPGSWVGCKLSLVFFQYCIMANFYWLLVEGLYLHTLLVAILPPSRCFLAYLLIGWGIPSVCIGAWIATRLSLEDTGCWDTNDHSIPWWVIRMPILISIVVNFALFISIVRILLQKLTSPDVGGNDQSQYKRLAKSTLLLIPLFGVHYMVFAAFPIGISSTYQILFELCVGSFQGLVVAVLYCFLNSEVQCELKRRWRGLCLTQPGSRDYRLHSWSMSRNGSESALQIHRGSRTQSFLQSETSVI
Description: Also, the cells are washed twice. […] The stimuli are present for 30 minutes. Then, the assay buffer is gently removed.

human VPAC2 [2] = biological target: T4, human VPAC2 (Homo sapiens, UniProt P41587); assay: Alpha screen cAMP in vitro potency, human VPAC2 receptor; format: cell-based; conditions: cAMP generation; single result from two analyses performed in a single run; read-out: Human VPAC2 Receptor: Alpha Screen EC50
T4 construct: expressed in transfected cells
T4 sequence (P41587 24-438): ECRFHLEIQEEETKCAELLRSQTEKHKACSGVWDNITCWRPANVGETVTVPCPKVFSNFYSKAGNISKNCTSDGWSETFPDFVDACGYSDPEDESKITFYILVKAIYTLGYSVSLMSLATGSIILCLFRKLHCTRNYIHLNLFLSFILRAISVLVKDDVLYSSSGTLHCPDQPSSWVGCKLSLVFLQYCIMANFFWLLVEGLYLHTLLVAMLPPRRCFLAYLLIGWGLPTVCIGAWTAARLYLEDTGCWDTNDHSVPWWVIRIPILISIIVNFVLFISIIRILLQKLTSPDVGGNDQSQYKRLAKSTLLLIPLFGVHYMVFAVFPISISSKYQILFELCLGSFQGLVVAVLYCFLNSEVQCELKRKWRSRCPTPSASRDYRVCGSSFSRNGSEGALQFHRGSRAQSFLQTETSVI
Outline: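 Stimulated cAMP accumulation is read by AlphaScreen after 60 min exposure of 50,000 non-enzymatically harvested cells to compound, followed by lysis with donor beads.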

human VPAC2 [3] = biological target: T4, human VPAC2; assay: Filter binding assay, membranes of stable VPAC2 cell line, 125I-labeled VIP tracer (Table 2); conditions: read-out: Human VPAC2 Receptor Binding
Outline: as §1

Compound | IC50 (human PAC1) | Rat Serum Stability (estimated purity in % after 18 hours) [1] | IC50 (human VPAC1) | EC50 (rat VPAC2 receptor) | EC50 (human VPAC2 [2]) | IC50 (human VPAC2 [3]) | Rat Serum Stability (Estimated purity in % after 72 hours) [1]
Hexanoyl-HSDAVFTDNYTRLR[Aib]QLAA[Aib]KYLQSIKNKRYGGPSSGAPPPS [Agonist P291] | > 25000 nM | 28.09% | > 3000 nM | 0.06 nM | 0.36 nM | 0.45 nM | –
Hexanoyl-HSDAVFTDNYTRLRQQVAAKKYLQSIKNKRYGGPSSGAPPPS [Agonist P177] | 276 nM | 0.49% | 128 nM | 0.1 nM | 0.21 nM | 0.7 nM | –
Hexanoyl-HSDAVFTDNYTRLRKQVAAQKYLQSIKNKRYGGPSSGAPPPS [Agonist P150] | 916 nM | 0.21% | 444 nM | 0.1 nM | 0.18 nM | 0.25 nM | –
Hexanoyl-HSDAVFTDNYTRLR[Aib]Q[Nle]AA[Aib]KYLQSIKNKRYGGPSSGAPPPS [Agonist P325] | > 25000 nM | 13.13% | > 3000 nM | 0.04 nM | 0.24 nM | 0.4 nM | –
Hexanoyl-HSDAVFTDNYTRL[hArg][Orn]QVAAKKYLQSIKNKRYGGPSSGAPPPS [Agonist P308] | – | 0.97% | 262 nM | 0.09 nM | 0.26 nM | 0.34 nM | –
Hexanoyl-HSDAVFTDNYTRLK[Aib]QVAA[Aib]KYLQSIKNKRYGGPSSGAPPPS [Agonist P318] | > 25000 nM | 29.95% | > 3000 nM | 0.09 nM | 0.32 nM | 0.63 nM | –
Hexanoyl-HSDAVFTDNYTRLRKQVAAK[Aib]YLQSIKNKRYGGPSSGAPPPS [Agonist P170] | 200 nM | 0.31% | 275 nM | 0.15 nM | 0.18 nM | 0.34 nM | –
CCCCCC(=O)N[C@@H](Cc1c[nH]cn1)C(=O)N[C@@H](CO)C(=O)N[C@@H](CC(=O)O)C(=O)N[C@@H](C)C(=O)N[C@H](C(=O)N[C@@H](Cc1ccccc1)C(=O)N[C@H](C(=O)N[C@@H](CC(=O)O)C(=O)N[C@@H](CC(N)=O)C(=O)N[C@@H](Cc1ccc(O)cc1)C(=O)N[C@H](C(=O)N[C@@H](CCCCNC(=N)N)C(=O)N[C@@H](CC(C)C)C(=O)N[C@@H](CCCNC(=N)N)C(=O)NC(C)(C)C(=O)N[C@@H](CCC(N)=O)C(=O)N[C@H](C(=O)N[C@@H](C)C(=O)N[C@@H](C)C(=O)NC(C)(C)C(=O)N[C@@H](CCCCN)C(=O)N[C@@H](Cc1ccc(O)cc1)C(=O)N[C@@H](CC(C)C)C(=O)N[C@@H](CCC(N)=O)C(=O)N[C@@H](CO)C(=O)N[C@H](C(=O)N[C@@H](CCCCNC(=N)N)C(=O)N[C@@H](CC(N)=O)C(=O)N[C@@H](CCCCNC(=N)N)C(=O)N[C@@H](CCCCNC(=N)N)C(=O)N[C@@H](Cc1ccc(O)cc1)C(=O)NCC(=O)NCC(=O)N1CCC[C@H]1C(=O)N[C@@H](CO)C(=O)N[C@@H](CO)C(=O)NCC(=O)N[C@@H](C)C(=O)N1CCC[C@H]1C(=O)N1CCC[C@H]1C(=O)N1CCC[C@H]1C(=O)N[C@@H](CO)C(=O)O)[C@@H](C)CC)C(C)C)[C@@H](C)O)[C@@H](C)O)C(C)C [Agonist P338] | – | 36.61% | > 3000 nM | 0.07 nM | 0.46 nM | 0.76 nM | –
Hexanoyl-HSDAVFTDNYTRL[hArg]KQVAAKKYLQSIKNKRYGGPSSGAPPPS [Agonist P305] | 171 nM | 0.23% | 268 nM | 0.04 nM | 0.17 nM | 0.17 nM | –
CCCCCC(=O)N[C@@H](Cc1c[nH]cn1)C(=O)N[C@@H](CO)C(=O)N[C@@H](CC(=O)O)C(=O)N[C@@H](C)C(=O)N[C@H](C(=O)N[C@@H](Cc1ccccc1)C(=O)N[C@H](C(=O)N[C@@H](CC(=O)O)C(=O)N[C@@H](CC(N)=O)C(=O)N[C@@H](Cc1ccc(O)cc1)C(=O)N[C@H](C(=O)N[C@@H](CCCN)C(=O)N[C@@H](CC(C)C)C(=O)N[C@@H](CCCNC(=N)N)C(=O)NC(C)(C)C(=O)N[C@@H](CCC(N)=O)C(=O)N[C@H](C(=O)N[C@@H](C)C(=O)N[C@@H](C)C(=O)NC(C)(C)C(=O)N[C@@H](CCCCN)C(=O)N[C@@H](Cc1ccc(O)cc1)C(=O)N[C@@H](CC(C)C)C(=O)N[C@@H](CCC(N)=O)C(=O)N[C@@H](CO)C(=O)N[C@H](C(=O)N[C@@H](CCCN)C(=O)N[C@@H](CC(N)=O)C(=O)N[C@@H](CCCN)C(=O)NCC(=O)NCC(=O)N1CCC[C@H]1C(=O)N[C@@H](CO)C(=O)N[C@@H](CO)C(=O)NCC(=O)N[C@@H](C)C(=O)N1CCC[C@H]1C(=O)N1CCC[C@H]1C(=O)N1CCC[C@H]1C(=O)N[C@@H](CO)C(=O)O)[C@@H](C)CC)C(C)C)[C@@H](C)O)[C@@H](C)O)C(C)C [Agonist P326] | > 25000 nM | 90.10% | > 3000 nM | 0.09 nM | 0.21 nM | 0.33 nM | 49.6%
Hexanoyl-HSDAVFTDNYTRLR[Aib]QVAAKKYLQSIKNKRYGGPSSGAPPPS [Agonist P168] | 538 nM | 10.47% | 234 nM | 0.05 nM | 0.27 nM | 0.21 nM | –
Hexanoyl-HSDAVFTDNYTRLR[Aib]QVAA[Aib][Orn]YLQSIKNKRYGGPSSGAPPPS [Agonist P342] | – | 25.96% | > 3000 nM | 0.06 nM | 0.21 nM | 0.35 nM | –
Hexanoyl-HSDAVFTDNYTR[Aib]R[Aib]QVAA[Aib]KYLQSIKNKRYGGPSSGAPPPS [Agonist P346] | – | 43.44% | > 3000 nM | 0.06 nM | 0.23 nM | 0.25 nM | 27.6%
Hexanoyl-HSDAVFTDNYT[Orn]LR[Aib]QVAA[Aib]KYLQSIKNKRYGGPSSGAPPPS [Agonist P344] | – | 50.19% | > 3000 nM | 0.06 nM | 0.13 nM | 0.25 nM | 43.0%
